Results on eight compounds are retold here after patent US4001409A, “Injectable formulations of 7-[D-α-amino-α-(p-hydroxyphenyl)acetamido]-3-(1,2,3-triazol- 5-ylthiomethyl)-3-cephem-4-carboxylic acid” (priority 1975, dated 1977).

Usually solubility stands for how much of the substance goes into solution per volume.

≈ marks a conversion by molar mass, not a printed value. Where “and” joins values, the source holds several entries; their conditions need not be identical. Equal entries are not always repeated. Structures can show the parent of a compound that is named as a salt. Where two headings read alike, the source gives them in different places.

One data set relates to E. coli Juhl A15119. Description: Minimum Inhibitory Concentration, tube dilution. To be noted: Escherichia coli, JUHLA15119.
In a further data set the test system is K. pneumoniae A15130. Description: Minimum Inhibitory Concentration, tube dilution. To be noted: Klebsiella pneumoniae.
The test system of the next data set is Ent. cloacae A9657. The data set is described as follows: Minimum Inhibitory Concentration, tube dilution. The following applies: Enterobacter cloacae.
Another data set has as its system E. coli A9675. Description: Minimum Inhibitory Concentration, tube dilution. The class given is cell-based. To be noted: Escherichia coli.
The test system of a further data set is Ent. cloacae A9659. The data set is described as follows: Minimum Inhibitory Concentration, tube dilution. The following applies: Enterobacter cloacae.
The test system of a further data set is D. pneumoniae A9585. Description: Minimum Inhibitory Concentration, tube dilution. The following applies: Streptococcus pneumoniae.
For the next data set, the system named is S. aureus BX1633-2 A9606. Description: Minimum Inhibitory Concentration, tube dilution. The class given is cell-based. To be noted: Staphylococcus aureus.
The test system of a further data set is Sal. enteritidis A9531. Description: Minimum Inhibitory Concentration, tube dilution. The following applies: Salmonella enterica. The class given is cell-based.
The test system of a further data set is Ent. cloacae A9656. Description: Minimum Inhibitory Concentration, tube dilution. To be noted: Enterobacter cloacae.
The subject of the next data set is Str. pyogenes A9604. The data set is described as follows: Minimum Inhibitory Concentration, tube dilution. It is filed as cell-based. The following applies: Streptococcus pyogenes. The source says: *50% Nutrient Broth - 45% Antibiotic Assay Broth
Another data set relates to K. pneumoniae A9977. Description: Minimum Inhibitory Concentration, tube dilution. To be noted: Klebsiella pneumoniae.
For another data set, the system named is S. aureus Smith A9537. The data set is described as follows: Minimum Inhibitory Concentration, tube dilution. The class given is cell-based. The following applies: Staphylococcus aureus, at 10^-^4 dilution, overnight, 37° C.
The subject of data set [1] is S. aureus meth.-resist. A15097. Description: Minimum Inhibitory Concentration, tube dilution. It is filed as cell-based. To be noted: Staphylococcus aureus.
A further data set has as its system Ser. marcescens A20019. The data set is described as follows: Minimum Inhibitory Concentration, tube dilution. To be noted: Serratia marcescens.
A further data set deals with Pr. mirabilis A9900. The data set is described as follows: Minimum Inhibitory Concentration, tube dilution. The following applies: Proteus mirabilis.
For data set [2] the following is noted: known forms; cannot be administered intravenously; cited from earlier work.
A further data set deals with Pr. morganii A15153. Description: Minimum Inhibitory Concentration, tube dilution. The following applies: Morganella morganii.
Data set [3] in a line: Blood levels in mice after intramuscular administration. The following applies: mouse, im, 10 mg/kg.
In the next data set the test system is Ps. aeruginosa A9843A. Description: microbe, parasite or virus in culture. To be noted: Pseudomonas aeruginosa.
Data set [4] in a line: Blood levels in mice after oral administration. The following applies: mouse, 100 mg/kg.
A further data set is described as follows: Heat stability of solids. To be noted: for Stability (loss): 1 month at 56° C., 43800 min; for Heat stability (loss): Procedure D. It is filed as physicochemical.
A further data set has as its system vein and muscle. The following applies: in vivo.
For data set [5], the system named is Gram-positive and Gram-negative organisms. To be noted: oral and parenteral; cited from earlier work.
Data set [6] in a line: Stability of aqueous solutions. The class given is physicochemical. The following applies: alkaline pH, i.e. pH~7.0 or higher. The source says:
A. Stability of Aqueous Solutions of Amorphous
Monohydrate and Sodium Levulinate Mixture at […]

The nature of a further data set: pH of solution. It is filed as physicochemical.
A short description of a further data set: physchem. The following applies: water.
Data set [7] in a line: Solubility in water / concentration of true solutions.
Setting [8] is: at 10^-^4 dilution, overnight, 37° C., read-out: M.I.C.
Where [9] appears, read: BX16332A9606, at 10^-^2 dil'n, overnight, 37° C.
[10] abbreviates: +5% serum, 50% Nutrient Broth - 45% Antibiotic Assay Broth, overnight, 37° C., read-out: M.I.C.

For the compound `CC1=C(C(=O)O)N2C(=O)[C@@H](NC(=O)[C@H](N)c3ccccc3)[C@H]2SC1` [Cephalexin], the MIC against E. coli Juhl A15119 was 8 µg/mL (≈ 23 µM); in the data set with K. pneumoniae A15130, 8 µg/mL (≈ 23 µM); against Ent. cloacae A9657, 4 µg/mL (≈ 11.5 µM); against E. coli A9675, 16 µg/mL (≈ 46.1 µM); in the data set with Ent. cloacae A9659, over 125 µg/mL; with D. pneumoniae A9585, 1 µg/mL (≈ 2.88 µM). For the same compound, the MIC was 2 µg/mL (≈ 5.76 µM) in the data set with S. aureus BX1633-2 A9606 (BX16332A9606, at 10^-^3 dil'n, overnight, 37° C., read-out: M.I.C.); 4 µg/mL (≈ 11.5 µM) against Sal. enteritidis A9531; over 125 µg/mL in the data set on Ent. cloacae A9656; 0.5 µg/mL (≈ 1.44 µM) in the data set with Str. pyogenes A9604; 4 µg/mL (≈ 11.5 µM) against K. pneumoniae A9977; 2 µg/mL (≈ 5.76 µM) in the data set with S. aureus Smith A9537 (SMITHA9537, +50% serum, read-out: M.I.C.). In addition, the MIC is 1 µg/mL (≈ 2.88 µM) in the data set on S. aureus Smith A9537 (SMITHA9537, read-out: M.I.C.); 16 µg/mL (≈ 46.1 µM) in [1] (at 10^-^3 dil'n, 37° C); 32 µg/mL (≈ 92.1 µM) in data set [1] (at 10^-^3 dil'n, 28° C, read-out: M.I.C.); over 125 µg/mL in the data set with Ser. marcescens A20019; 4 µg/mL (≈ 11.5 µM) in the data set with Pr. mirabilis A9900.

Turning to `N[C@@H](C(=O)NC1C(=O)N2C(C(=O)O)=C(CSc3cnn[nH]3)CSC12)c1ccc(O)cc1` (stereo partly drawn) [Cephalosporin 1,2-propylene glycolate, 7-[D-α-amino-α-(p-hydroxyphenyl)acetamido]-3-(1,2,3-triazol-5-ylthiomethyl)-3-cephem-4-carboxylic acid 1,2-propylene glycolate], the MIC came out at 1 µg/mL (≈ 2.16 µM) with E. coli Juhl A15119; 2 µg/mL (≈ 4.32 µM) against K. pneumoniae A15130; 1 µg/mL (≈ 2.16 µM) in the data set with Ent. cloacae A9657; 4 µg/mL (≈ 8.65 µM) in the data set on E. coli A9675 (setting [8]); 32 µg/mL (≈ 69.2 µM) with Ent. cloacae A9659; 0.13 µg/mL (≈ 0.281 µM) in the data set on D. pneumoniae A9585. The MIC is 32 µg/mL (≈ 69.2 µM) with Pr. morganii A15153; 2 µg/mL (≈ 4.32 µM) in the data set with S. aureus BX1633-2 A9606 (setting [9]); 0.5 µg/mL (≈ 1.08 µM) against S. aureus BX1633-2 A9606 (BX16332A9606, at 10^-^3 dil'n, overnight, 37° C.); 0.5 µg/mL (≈ 1.08 µM) against Sal. enteritidis A9531; over 125 µg/mL against Ent. cloacae A9656; 0.03 µg/mL (≈ 0.0649 µM) with Str. pyogenes A9604 (setting [10]). For the same compound, the MIC with K. pneumoniae A9977 was 1 µg/mL (≈ 2.16 µM); against Ps. aeruginosa A9843A, over 125 µg/mL; in the data set on S. aureus Smith A9537 (SMITHA9537, +50% serum), 2 µg/mL (≈ 4.32 µM); with S. aureus Smith A9537 (SMITHA9537, read-out: M.I.C.), 0.25 µg/mL (≈ 0.541 µM); against Ser. marcescens A20019, over 125 µg/mL; with Pr. mirabilis A9900, 0.5 µg/mL (≈ 1.08 µM). Also, the solubility in water entry in data set [2] is listed as “relatively low solubility in water”. In data set [3], this compound gave a concentration at 0.5 h of 17400 ng/mL. Moreover, the values for the concentration at 1 h in [3] and in data set [4] were 12300 ng/mL and 44700 ng/mL, respectively. The compound further displayed a concentration at 1.5 h in data set [3] of 9000 ng/mL. Moreover, the concentration at 2 h in data set [4] was 26600 ng/mL. In data set [4], this compound yielded a concentration at 3.5 h of 9700 ng/mL. The concentration at 9.5 h in data set [4] was found to be 45800 ng/mL. Moreover, the Bio-assay in the data set “Bio-assay” is listed as 880-890 units/mg.

On to `CC(=O)OCC1=C(C(=O)O)N2C(=O)[C@@H](NC(=O)Cc3cccs3)[C@H]2SC1` [Cephalothin], for which the MIC with E. coli Juhl A15119 is 8 µg/mL (≈ 20.2 µM); in the data set on K. pneumoniae A15130, 16 µg/mL (≈ 40.4 µM); against Ent. cloacae A9657, 2 µg/mL (≈ 5.04 µM); against E. coli A9675, 32 µg/mL (≈ 80.7 µM); in the data set with Ent. cloacae A9659 it was over 125 µg/mL; in the data set with Pr. morganii A15153, over 125 µg/mL. The MIC in the data set on S. aureus BX1633-2 A9606 (BX16332A9606) was 0.25 µg/mL (≈ 0.631 µM); in the data set on S. aureus BX1633-2 A9606 (setting [9]), 0.25 µg/mL (≈ 0.631 µM); with Sal. enteritidis A9531 (setting [8]), 0.06 µg/mL (≈ 0.151 µM); with Ent. cloacae A9656, over 125 µg/mL; with Str. pyogenes A9604 (setting [10]) it was 0.06 µg/mL (≈ 0.151 µM); in the data set on K. pneumoniae A9977 it was 2 µg/mL (≈ 5.04 µM). Further, the MIC in the data set with Ps. aeruginosa A9843A is over 125 µg/mL; in the data set with S. aureus Smith A9537 (SMITHA9537, +50% serum), 0.5 µg/mL (≈ 1.26 µM); in data set [1], 4 µg/mL (≈ 10.1 µM); in [1] (at 10^-^3 dil'n, 37° C), 1 µg/mL (≈ 2.52 µM); in the data set on Ser. marcescens A20019, over 125 µg/mL; in the data set with Pr. mirabilis A9900 it was 1 µg/mL (≈ 2.52 µM).

As for `N[C@@H](C(=O)NC1C(=O)N2C(C(=O)O)=C(CSc3cnn[nH]3)CSC12)c1ccc(O)cc1` (stereo partly drawn) [amorphous mono-hydrochloride, 7[D-α-amino-α-(p-hydroxyphenyl)acetamido]-3-(1,2,3-triazol-5-ylthiomethyl)-3-cephem-4-carboxylic acid amorphous mono-hydrochloride], the “Stability (loss)” value in the data set “Heat stability of solids” (Procedure Da) and in “Heat stability of solids” (Procedure Db) was “Less than 10%” each time. Moreover, the “Heat stability (loss)” value in “Heat stability of solids” (56° C., 4 weeks, 40320 min) was 1-6%; in the data set “Heat stability of solids” (100° C., 24 hours), 7-14%; in “Heat stability of solids” (100° C., 48 hours), 10-15%. For the same compound, in the data set on vein and muscle, the “venous irritation and muscle damage” value is “significant venous irritation and muscle damage”. For the same compound, in “Bio-assay” (mono-hydrochloride), the Bio-assay is 900 µg/mg and 820 to 850 µg/mg.

For the compound `N[C@@H](C(=O)NC1C(=O)N2C(C(=O)O)=C(CSc3cnn[nH]3)CSC12)c1ccc(O)cc1` (stereo partly drawn) [amorphous monohydrate, 7-[D-α-amino-α-(p-hydroxyphenyl)acetamido]-3-(1,2,3-triazol-5-ylthiomethyl)-3-cephem-4-carboxylic acid amorphous monohydrate], in “Bio-assay” (monohydrate), the Bio-assay is recorded as 900-935 units/mg.

Consider `N[C@@H](C(=O)NC1C(=O)N2C(C(=O)O)=C(CSc3cnn[nH]3)CS[C@H]12)c1ccc(O)cc1` (stereo partly drawn) [compound I, 7-[D-α-amino-α-(p-hydroxyphenyl)acetamido]-3-(1,2,3-triazol-5-ylthiomethyl)-3-cephem-4-carboxylic acid], for which the solubility in water entry in data set [2] is “relatively low solubility in water”. Further, the “therapeutic effectiveness against infections” value in [5] was “therapeutically effective against infections caused by both Gram-positive and Gram-negative organisms”. Moreover, the “splitting off of the triazole moiety at the 3-position” value in data set [6] is “found to split off rapidly at alkaline pH”.

With `CC(=O)CCC(=O)[O-].[Na+]` [sodium levulinate], the pH in “pH of solution” is 6.5-8.0. This compound returned a solubility in “physchem” of over 300 mg/mL.

As for `CC(=O)C(=O)[O-].[Na+]` [sodium pyruvate], the pH in “pH of solution” is listed as 6.5-8.0. In addition, the solubility in data set [7] is over 500 mg/mL.
